Reference: patent publication US11384075B2, “Quinolinone compounds” (Janssen Pharmaceutica NV, priority 2017, dated 2022)

What was measured:
[1] = target: T1, human FGFR3 wild type enzyme (cytoplasmic domain) (Homo sapiens, UniProt P22607); assay: FGFR3 wild type mobility shift assay (enzymatic assay); type: biochemical; settings: 75 μM ATP, 50 minutes at 30° C., Caliper EZ reader II
T1 construct: human FGFR3 wild type enzyme (cytoplasmic domain, from Carna Biosciences); purchased Carna Biosciences
Protocol: FGFR3 Wild Type Mobility Shift Assay (Enzymatic Assay)
(§1) In a final reaction volume of 25 μL, 0.04 ng/μL human FGFR3 wild type enzyme (cytoplasmic domain, from Carna Biosciences) was incubated with 75 μM ATP, 1 μM FL-peptide 30 substrate and 250 nL of testing compound (1% DMSO final) in assay buffer (100 mM HEPES pH 7.4, 10 mM MgCl2, 0.003% Brij35, 1 mM DTT). After incubation for 50 minutes at 30° C. the reaction was stopped with 10 μL of 0.5M EDTA pH 8.0, and then 25 μL of reaction mixture was transferred to reading plate and measured on Caliper EZ reader II. The substrate-product conversion rate was used as raw data for normalization and concentration-response curve (10 dose points with 4× serial dilution, starting with 10 μM) was plotted using Prism to calculate IC50 (M), pIC50 (−log IC50) and HillSlope value.

[2] = target: T2, NIH/3T3 cells overexpressing FGFR3 WT-TACC3 fusion protein (Homo sapiens, UniProt P22607); assay: NIH/3T3 FGFR3 WT-TACC3 cell proliferation assay; type: cell-based; settings: 72-hr incubation, CellTiter Glo, starting with 10 μM; read-out: NIH/3T3 FGFR3 WT-TACC3 CTG (IC50)
T2 construct: NIH/3T3 FGFR3 WT-TACC3 CTG (IC50); other: 72-hr incubation, CellTiter Glo, starting with 10 μM; fused on or other part: Q9Y6A5 (Transforming acidic coiled-coil-containing protein 3)
Protocol: NIH/3T3 FGFR3 WT-TACC3 Cell Proliferation Assay
(§2) In day 1, 90 μL of cell suspension (NIH/3T3 cells overexpressing FGFR3 WT-TACC3 fusion protein) (total 30,000 cells per well in growth medium (DMEM containing 1% Glutamax, 10% FBS and 1% Pen/Strep)) was seeded in a 96-well plate and then incubated overnight at 37° C. and 5% CO2. In day 2, 10 μL of growth medium containing 10-fold stock solution of testing compound was added into cell cultures (9 dose points with 4× serial dilution, starting with 10 μM, 0.1% DMSO final). After 72-hr incubation at 37° C. and 5% CO2, in day 5 a volume of 50 μL CellTiter Glo (CTG) reagent was added into cell-containing 96-well plate and the plate was incubated at room temperature for 10 minutes before RLUs (relative light unit) were measured on a microplate reader with luminescence detection module. The RLU value was normalized to survival % and concentration-response curve was plotted using Prism to calculate IC50 (M), pIC50 (−log IC50) and HillSlope value.

[3] = target: T3, human FGFR3 V555M enzyme (cytoplasmic domain carrying V555M mutation) (Homo sapiens, UniProt P22607, V555M); assay: FGFR3 V555M mobility shift assay (enzymatic assay); type: biochemical; settings: 30 μM ATP, 45 minutes at 30° C., Caliper EZ reader II
T3 construct: human FGFR3 V555M enzyme (cytoplasmic domain carrying V555M mutation, from Carna Biosciences); purchased Carna Biosciences
Protocol: FGFR3 V555M Mobility Shift Assay (Enzymatic Assay)
as §1, with “FGFR3 V555M” for “FGFR3 wild type”, “(cytoplasmic domain carrying V555M mutation,” for “(cytoplasmic domain,”, “with 30” for “with 75”, “for 45” for “for 50”

[4] = target: T4, NIH/3T3 cells overexpressing FGFR3 V555M-TACC3 fusion protein (Homo sapiens, UniProt P22607, V555M, cells depend on it); assay: NIH/3T3 FGFR3 V555M-TACC3 cell proliferation assay; type: cell-based; settings: 72-hr incubation, CellTiter Glo, starting with 10 μM; read-out: NIH/3T3 FGFR3 V555M-TACC3 CTG (IC50)
T4 construct: NIH/3T3 FGFR3 V555M-TACC3 CTG (IC50); other: 72-hr incubation, CellTiter Glo, starting with 10 μM; fused on or other part: Q9Y6A5 (Transforming acidic coiled-coil-containing protein 3)
Protocol: NIH/3T3 FGFR3 V555M-TACC3 Cell Proliferation Assay
as §2, with “V555M-TACC3” for “WT-TACC3”

[5] = tested on: NIH/3T3 cells transfected with the same control vector; assay: NIH/3T3 mock cell proliferation assay (counter assay, general toxicity); type: cell-based; settings: Mus musculus, NIH3T3, 72 h, 72-hr incubation, CellTiter Glo, starting with 30 μM; counter assay for general toxicity; read-out: NIH/3T3 MOCK CTG (IC50)
Protocol: NIH/3T3 Mock Cell Proliferation Assay
as §2, with “cells transfected with the same control vector as in the above two proliferation assays)” for “cells overexpressing FGFR3 WT-TACC3 fusion protein)”, “with 3×” for “with 4×”, “with 30” for “with 10”, “μM, 0.3%” for “μM, 0.1%”

T2 sequence (P22607 whole entry, change not shown, the tested form may be a part): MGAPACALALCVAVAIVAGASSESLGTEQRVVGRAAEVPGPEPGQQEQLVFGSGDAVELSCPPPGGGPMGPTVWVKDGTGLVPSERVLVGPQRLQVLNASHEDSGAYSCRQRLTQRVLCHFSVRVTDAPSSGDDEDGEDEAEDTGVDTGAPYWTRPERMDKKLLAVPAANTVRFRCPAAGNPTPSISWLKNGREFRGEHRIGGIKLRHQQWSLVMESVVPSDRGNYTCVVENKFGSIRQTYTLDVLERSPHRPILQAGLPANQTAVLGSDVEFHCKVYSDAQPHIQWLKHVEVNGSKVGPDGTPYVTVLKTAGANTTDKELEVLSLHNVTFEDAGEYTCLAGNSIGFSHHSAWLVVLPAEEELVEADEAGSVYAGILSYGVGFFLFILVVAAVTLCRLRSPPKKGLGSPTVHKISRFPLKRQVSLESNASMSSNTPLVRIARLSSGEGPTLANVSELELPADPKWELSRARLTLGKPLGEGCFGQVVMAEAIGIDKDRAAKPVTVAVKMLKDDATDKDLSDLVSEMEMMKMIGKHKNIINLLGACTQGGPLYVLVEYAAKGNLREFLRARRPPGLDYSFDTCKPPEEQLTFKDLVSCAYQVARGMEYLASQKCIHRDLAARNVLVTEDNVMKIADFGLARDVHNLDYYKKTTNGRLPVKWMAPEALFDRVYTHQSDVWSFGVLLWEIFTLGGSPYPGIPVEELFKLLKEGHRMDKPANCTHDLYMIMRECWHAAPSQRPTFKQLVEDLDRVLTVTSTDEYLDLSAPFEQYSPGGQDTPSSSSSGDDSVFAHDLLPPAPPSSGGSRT
T3 sequence (P22607 397-806 V555M limits assumed): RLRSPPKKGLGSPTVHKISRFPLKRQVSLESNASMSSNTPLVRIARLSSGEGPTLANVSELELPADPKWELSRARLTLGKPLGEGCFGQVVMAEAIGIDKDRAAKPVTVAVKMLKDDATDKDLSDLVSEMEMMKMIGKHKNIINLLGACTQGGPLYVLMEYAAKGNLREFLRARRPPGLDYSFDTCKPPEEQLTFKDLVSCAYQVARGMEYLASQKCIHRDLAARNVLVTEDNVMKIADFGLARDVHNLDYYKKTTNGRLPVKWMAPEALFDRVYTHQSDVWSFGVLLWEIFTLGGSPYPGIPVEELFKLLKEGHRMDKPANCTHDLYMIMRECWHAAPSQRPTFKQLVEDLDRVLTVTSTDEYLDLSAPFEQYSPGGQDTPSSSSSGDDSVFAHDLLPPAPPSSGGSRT
T4 sequence (P22607 whole entry V555M, the tested form may be a part): as the sequence (P22607 whole entry, change not shown, the tested form may be a part) above, with V555M counted along it
T1 sequence (P22607 397-806 limits assumed): as the sequence (P22607 397-806 V555M limits assumed) above, with M159V counted along it

Row | Compound | IC50 [1] [µM] | GI50 [2] [µM] | IC50 [3] [µM] | GI50 [4] [µM] | IC50 [5] [µM]
1 | COC(=O)C1CN(c2ccc3nc(-c4c(N[C@@H](C)c5ccccn5)c5ccccc5[nH]c4=O)[nH]c3c2)CCO1 (mixture of isomers) [Compound 59, (Rac)-methyl 4-(2-(2-oxo-4-(((S)-1-(pyridin-2-yl)ethyl)amino)-1,2-dihydroquinolin-3-yl)-1H-benzo[d]imidazol-6-yl)morpholine-2-carboxylate] | 0.000788 | 0.0319 | 0.00036 | 0.0617 | 7.29
2 | C[C@H](Nc1c(-c2nc3ccc(N4CCOC(C(=O)O)C4)cc3[nH]2)c(=O)[nH]c2ccccc12)c1ccccn1 (mixture of isomers) [Compound 60, (Rac)-4-(2-(2-oxo-4-(((S)-1-(pyridin-2-yl)ethyl)amino)-1,2-dihydroquinolin-3-yl)-1H-benzo[d]imidazol-6-yl)morpholine-2-carboxylic acid] | 0.00118 | 1.28 | 0.000603 | 1.62 | > 30
3 | CC(Nc1c(-c2nc3ccc(N4CCN(C)CC4)cc3[nH]2)c(=O)[nH]c2ccccc12)c1cocn1 (single isomer, unassigned) [Compound 11a, (S*)-3-(6-(4-methylpiperazin-1-yl)-1H-benzo[d]imidazol-2-yl)-4-((1-(oxazol-4-yl)-ethyl)amino)quinolin-2(1H)-one] | 0.0326 | – | 0.012 | – | –
4 | CC(Nc1c(-c2nc3ccc(N4CCN(C)CC4)c(F)c3[nH]2)c(=O)[nH]c2ccccc12)c1ccccn1 (single isomer, unassigned) [Compound 13b, (S*)-3-(7-fluoro-6-(4-methylpiperazin-1-yl)-1H-benzo[d]imidazol-2-yl)-4-((1-(pyridin-2-yl)ethyl)amino)quinolin-2(1H)-one] | 0.00105 | 0.00346 | 0.000449 | 0.00434 | 1.74
5 | CC(Nc1c(-c2nc3ccc(N4C[C@@H](C)O[C@@H](C)C4)cc3[nH]2)c(=O)[nH]c2ccccc12)c1ncccn1 (single isomer, unassigned) [Compound 22a, 3-(6-((2S,6R)-2,6-dimethylmorpholino)-1H-benzo[d]imidazol-2-yl)-4-(((S*)-1-(pyrimidin-2-yl)ethyl)amino)quinolin-2(1H)-one] | 0.000445 | 0.0133 | 0.000421 | 0.00648 | 6.39
6 | CC(Nc1c(-c2nc3ccc(N4CCOCC4)c(F)c3[nH]2)c(=O)[nH]c2ccccc12)c1ncccn1 (single isomer, unassigned) [Compound 23a, (S*)-3-(7-fluoro-6-morpholino-1H-benzo[d]imidazol-2-yl)-4-((1-(pyrimidin-2-yl)-ethyl)amino)quinolin-2(1H)-one] | 0.000591 | 0.00834 | 0.000245 | 0.0134 | 15.3
7 | CC(Nc1c(-c2nc3ccc(N4C[C@@H](C)O[C@H](C)C4)cc3[nH]2)c(=O)[nH]c2ccccc12)c1ncccn1 (single isomer, unassigned) [Compound 37b, 3-(6-((2R,6R)-2,6-dimethylmorpholino)-1H-benzo[d]imidazol-2-yl)-4-(((R*)-1-(pyrimidin-2-yl)ethyl)amino)quinolin-2(1H)-one] | 0.0293 | – | 0.0202 | – | –
8 | CC(Nc1c(-c2nc3ccc(N4CCN(CCC(F)(F)F)CC4)cc3[nH]2)c(=O)[nH]c2ccccc12)c1ncccn1 (single isomer, unassigned) [Compound 41b, (R*)-4-((1-(pyrimidin-2-yl)ethyl)amino)-3-(6-(4-(3,3,3-trifluoropropyl)piperazin-1-yl)-1H-benzo[d]imidazol-2-yl)quinolin-2(1H)-one] | 0.0394 | – | 0.0194 | – | –
9 | CC(C)c1ccnc(C(C)Nc2c(-c3nc4ccc(N5CCOCC5)cc4[nH]3)c(=O)[nH]c3ccccc23)n1 (single isomer, unassigned) [Compound 49a, (S*)-4-((1-(4-isopropylpyrimidin-2-yl)ethyl)amino)-3-(6-morpholino-1H-benzo[d]-imidazol-2-yl)quinolin-2(1H)-one] | 0.027 | – | 0.00707 | – | –
10 | C[C@H](Nc1c(-c2nc3ccc(N4CCOCC4)cc3[nH]2)c(=O)[nH]c2ccccc12)c1nccc(C2CC2)n1 (single isomer, unassigned) [Compound 50a, (S*)-4-((1-(4-cyclopropylpyrimidin-2-yl)ethyl)amino)-3-(6-morpholino-H-benzo[d]-imidazol-2-yl)quinolin-2(1H)-one] | 0.0489 | – | 0.00875 | – | –
11 | CC(Nc1c(-c2nc3ccc(-c4cnn(C)c4)cc3[nH]2)c(=O)[nH]c2ccccc12)c1ncccn1 (single isomer, unassigned) [Compound 53b, (R*)-3-(6-(1-methyl-1H-pyrazol-4-yl)-1H-benzo[d]imidazol-2-yl)-4-((1-(pyrimidin-2-yl)ethyl)amino)quinolin-2(1H)-one] | 0.0352 | – | 0.0153 | – | –
12 | CC(Nc1c(-c2nc3cc(C(F)(F)F)c(N4CCC(C(=O)OC(C)(C)C)CC4)cc3[nH]2)c(=O)[nH]c2ccccc12)c1ncccn1 (single isomer, unassigned) [Compound 57, (S*)-tert-butyl 1-(2-(2-oxo-4-((1-(pyrimidin-2-yl)ethyl)amino)-1,2-dihydroquinolin-3-yl)-5-(trifluoromethyl)-1H-benzo[d]imidazol-6-yl)piperidine-4-carboxylate] | 0.0619 | – | 0.0192 | – | –
